Data from US7338974B2, “Macrocyclic diaminopropanes as beta-secretase inhibitors” (Bristol-Myers Squibb Company, priority 2005, dated 2008).
Like-named read-outs stand apart in the source and are kept apart here.

Experiments:
[1] = rcm bond, 15-membered ring
BACE1 enzyme = molecular target: T1, BACE1 enzyme (Homo sapiens, UniProt P56817); test: Radioligand displacement assay with a radiolabeled BACE inhibitor on HEK293-9B.A1 cell homogenate; assay type: binding; details: displacement of 1 nM tritiated radioligand, HEK293-9B.A1 homogenate, pH 5.0, 1.5 hr at 25° C.; read-out: Activity Rating (Activity based on IC50 values)
T1 construct: The HEK293-9B.A1 cell line, which overexpresses the BACE1 enzyme, was derived from HEK293 cells; endogenous in cells; washed membrane pellet / cell homogenate
T1 sequence (P56817 46-501): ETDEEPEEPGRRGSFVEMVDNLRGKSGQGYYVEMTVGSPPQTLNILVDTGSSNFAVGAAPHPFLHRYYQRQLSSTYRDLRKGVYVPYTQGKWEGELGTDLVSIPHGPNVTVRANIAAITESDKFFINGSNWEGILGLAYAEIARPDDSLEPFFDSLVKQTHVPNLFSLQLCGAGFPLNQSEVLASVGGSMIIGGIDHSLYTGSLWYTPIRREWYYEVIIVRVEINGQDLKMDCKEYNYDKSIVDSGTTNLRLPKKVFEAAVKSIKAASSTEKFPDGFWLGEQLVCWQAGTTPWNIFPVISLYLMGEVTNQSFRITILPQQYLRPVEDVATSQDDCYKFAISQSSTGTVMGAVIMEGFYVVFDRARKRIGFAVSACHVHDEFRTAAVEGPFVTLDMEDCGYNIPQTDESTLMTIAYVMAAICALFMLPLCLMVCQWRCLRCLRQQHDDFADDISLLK
Source text: There are a number of methods by which inhibitors of the BACE enzyme can be identified experimentally. The enzyme can be obtained from membrane samples from natural tissues or cultured cells or can be expressed recombinantly in a host cell by well known methods of molecular biology. The whole enzyme or a portion thereof can be expressed, for example, in bacterial, insect or mammalian cells to obtain a catalytically active enzyme species. The enzymatic activity and/or ligand binding capability of the enzyme can be assessed within these membrane samples, or the enzyme can be purified to varying extents. As an illustrative example, the nucleic acid sequence encoding the pro and catalytic domains of human BACE can be appended on the 5′ end with an untranslated and signal sequence from the gene for acetylcholinesterase, and on the 3′ end with a sequence encoding a poly-histidine tag. This cDNA can then be expressed in Drosophila melanogaster S2 cells in which the signal and pro sequences of the transcribed/translated protein are removed by cellular proteases and the catalytic domain, appended by a C-terminal poly-histidine tag, is secreted out into the cellular medium. The enzyme can then be purified from the culture medium by nickel affinity chromatography by methods well known to those trained in the art [Mallender, W. et al., “Characterization of recombinant, soluble beta-secretase from an insect cell expression system.” Mol. Pharmacol. 2001, 59: 619-626]. Similar strategies for expressing and purifying various forms of BACE in bacterial, mammalian and other cell types would be known to one skilled in the art. A preferred method for determining the potency of a test compound in binding to the BACE enzyme is by moitoring the displacement of a suitable radioligand.
Radioligand displacement assays with a radiolabeled BACE inhibitor (WO 2004 013098, compound 3, where the methoxy group is substituted for C(3H)3) were carried out using standard methods (Keen, M. (1999) in Receptor Binding Techniques (Walker, J. M. ed) p. 106 Humana Press, Totowa, N.J.). The HEK293-9B.A1 cell line, which overexpresses the BACE1 enzyme, was derived from HEK293 cells (Simmons, N. L. (1990) A cultured human renal epithelioid cell line responsive to vasoactive intestinal peptide. Exp. Physiol. 75:309-19.) by RAGE™ (Harrington, J. J. et al. (2001) Creation of genome-wide protein expression libraries using random activation of gene expression. Nat. Biotechnol. 19:440-5.; U.S. Pat. Nos. 6,410,266 and 6,361,972). T225 flask cultures of HEK293-9B.A1 were grown to 80% confluency in DMEM supplemented with 2 mM L-glutamine, 10 μg/ml penicillin, 10 μg/ml streptomycin, 3 μg/ml puromycin, 100 nM methotrexate, and 10% fetal bovine serum (Invitrogen, Carlsbad, Calif.), harvested, and resuspended at 2×10^8 cells per 10 ml of lysis buffer consisting of 50 mM HEPES pH 7.0 containing a protease inhibitor cocktail of AEBSF 104 μM, aprotinin 80 nM, leupeptin 2 μM, bestatin 4 μM, pepstatin A 1.5 μM, and E-64 1.4 μM (0.1% of protease inhibitor cocktail P8340, Sigma-Aldrich, St. Louis, Mo.) at 4° C. The resuspended cells were homogenized using a Polytron (Brinkman, Westbury, N.Y.) at setting 6 for 10 sec., then centrifuged at 48,000×g for 10 min. The resulting pellet was washed by repeating the resuspension, homogenization and centrifugation steps. The final pellet was resuspended in buffer at 4° C. to yield a total protein concentration of 5 mg/ml, then aliquots were frozen in liquid nitrogen for further storage at −70° C. Immediately before carrying out a binding assay, an aliquot of cell homogenate was thawed and diluted to a concentration of 100 μg/ml in assay buffer consisting of 50 mM HEPES pH 5.0 and 0.1% CHAPSO. […]

Structure (SMILES): COc1ccc2c(c1)C1CC2OCC=CCC(N2CCCC2=O)C(=O)N[C@@H](Cc2ccccc2)[C@H](O)CN1 (stereo partly drawn) [Example 1, (4R,5S)-5-Benzyl-4-hydroxy-18-methoxy-8-(2-oxo-pyrrolidin-1-yl)-13-oxa-2,6-diaza-tricyclo[12.6.1.0^15,20]henicosa-10,15(20),16,18-tetraen-7-one]
- ring closure, yield after HPLC ([1]; from C=CCOC1CC(NC[C@@H](O)[C@H](Cc2ccccc2)NC(=O)C(CC=C)N2CCCC2=O)c2cc(OC)ccc21, Grubbs II (20 mol%)/TsOH.H2O, CH2Cl2, 8.75 mM, 25.0 °C, 18.0 h): 97%
- IC50 (BACE1 enzyme): > 1000 nM

Structure (SMILES): COc1ccc2c(c1)C1CC2OCCCCC(N2CCCC2=O)C(=O)N[C@@H](Cc2ccccc2)[C@H](O)CN1 (stereo partly drawn) [Example 2, (4R,5S)-5-Benzyl-4-hydroxy-18-methoxy-8-(2-oxo-pyrrolidin-1-yl)-13-oxa-2,6-diaza-tricyclo[12.6.1.0^15,20]henicosa-15(20),16,18-trien-7-one]
- IC50 (BACE1 enzyme): > 1000 nM

Structure (SMILES): COc1ccc2c(c1)[C@@H]1C[C@H]2OCC=CC[C@H](N2CCCC2=O)C(=O)N[C@@H](Cc2cc(F)cc(F)c2)[C@H](O)CN1 [Example 3, (1S,4R,5S,8S,14R)-5-(3,5-Difluoro-benzyl)-4-hydroxy-18-methoxy-8-(2-oxo-pyrrolidin-1-yl)-13-oxa-2,6-diaza-tricyclo[12.6.1.0^15,20]henicosa-10,15(20),16,18-tetraen-7-one]
- ring closure, yield after HPLC ([1]; from C=CCO[C@@H]1C[C@H](NC[C@@H](O)[C@H](Cc2cc(F)cc(F)c2)NC(=O)[C@H](CC=C)N2CCCC2=O)c2cc(OC)ccc21, Hoveyda-Grubbs II (20 mol%), CH2Cl2, 7.15 mM, 25.0 °C, 16.0 h): 70%
- IC50 (BACE1 enzyme): 10 to 1000 nM

Structure (SMILES): CCCC[C@H]1CCN([C@H]2CC=CCO[C@@H]3C[C@H](NC[C@@H](O)[C@H](Cc4cc(F)cc(F)c4)NC2=O)c2cc(OC)ccc23)C1=O [Example 4, (1S,4R,5S,8S,14R)-8-((S)-3-Butyl-2-oxo-pyrrolidin-1-yl)-5-(3,5-difluoro-benzyl)-4-hydroxy-18-methoxy-13-oxa-2,6-diaza-tricyclo[12.6.1.0^15,20]henicosa-10,15(20),16,18-tetraen-7-one]
- ring closure, yield after HPLC ([1]; from C=CCO[C@@H]1C[C@H](NC[C@@H](O)[C@H](Cc2cc(F)cc(F)c2)NC(=O)[C@H](CC=C)N2CC[C@H](CCCC)C2=O)c2cc(OC)ccc21, Hoveyda-Grubbs II (10 mol%), CH2Cl2, 25.0 °C, 72.0 h): 46%
- IC50 (BACE1 enzyme): < 10 nM

Structure (SMILES): CCCC[C@H]1CCN([C@H]2CCCCO[C@@H]3C[C@H](NC[C@@H](O)[C@H](Cc4cc(F)cc(F)c4)NC2=O)c2cc(OC)ccc23)C1=O [Example 5, (1S,4R,5S,8S,14R)-8-((S)-3-Butyl-2-oxo-pyrrolidin-1-yl)-5-(3,5-difluoro-benzyl)-4-hydroxy-18-methoxy-13-oxa-2,6-diaza-tricyclo[12.6.1.0^15,20]henicosa-15(20),16,18-trien-7-one]
- IC50 (BACE1 enzyme): < 10 nM

Structure (SMILES): CCC(C)[C@@]1(NC(C)=O)CCN([C@H]2CC=CCO[C@@H]3C[C@H](NC[C@@H](O)[C@H](Cc4ccccc4)NC2=O)c2cc(OC)ccc23)C1=O (stereo partly drawn) [Example 6, N—[(S)-1-((1S,4R,5S,8S,14R)-5-Benzyl-4-hydroxy-18-methoxy-7-oxo-13-oxa-2,6-diaza-tricyclo[12.6.1.0^15,20]henicosa-10,15(20),16,18-tetraen-8-yl)-3-sec-butyl-2-oxo-pyrrolidin-3-yl]-acetamide]
- ring closure, yield after HPLC ([1]; from C=CCO[C@@H]1C[C@H](NC[C@@H](O)[C@H](Cc2ccccc2)NC(=O)[C@H](CC=C)N2CC[C@](NC(C)=O)(C(C)CC)C2=O)c2cc(OC)ccc21, Hoveyda-Grubbs II (10 mol%), dichloroethane, 50.0 °C, 16.0 h): 50%
- IC50 (BACE1 enzyme): < 10 nM

Structure (SMILES): COc1ccc2c(c1)[C@@H]1C[C@H]2OCC=CC[C@H](N2CC[C@H](CC(C)C)C2=O)C(=O)N[C@@H](Cc2ccccc2)[C@H](O)CN1 [Example 7, (1S,4R,5S,8S,14R)-5-Benzyl-4-hydroxy-8-((S)-3-isobutyl-2-oxo-pyrrolidin-1-yl)-18-methoxy-13-oxa-2,6-diaza-tricyclo[12.6.1.0^15,20]henicosa-10,15(20),16,18-tetraen-7-one]
- ring closure, yield after HPLC ([1]; from C=CCO[C@@H]1C[C@H](NC[C@@H](O)[C@H](Cc2ccccc2)NC(=O)[C@H](CC=C)N2CC[C@H](CC(C)C)C2=O)c2cc(OC)ccc21, Hoveyda-Grubbs II (10 mol%), CH2Cl2, 8.9 mM, 25.0 °C, 16.0 h): 75%
- IC50 (BACE1 enzyme): < 10 nM
